{"source": "patent US8865693B2", "about": "“Prevention of infection” (Pop Test Cortisol LLC, priority 2011, dated 2014)", "origin": "cited, not measured here", "key": {"glucocorticoid receptor": {"target": "T1, glucocorticoid receptor (Homo sapiens, UniProt P04150)", "T1 sequence (P04150 1-777)": "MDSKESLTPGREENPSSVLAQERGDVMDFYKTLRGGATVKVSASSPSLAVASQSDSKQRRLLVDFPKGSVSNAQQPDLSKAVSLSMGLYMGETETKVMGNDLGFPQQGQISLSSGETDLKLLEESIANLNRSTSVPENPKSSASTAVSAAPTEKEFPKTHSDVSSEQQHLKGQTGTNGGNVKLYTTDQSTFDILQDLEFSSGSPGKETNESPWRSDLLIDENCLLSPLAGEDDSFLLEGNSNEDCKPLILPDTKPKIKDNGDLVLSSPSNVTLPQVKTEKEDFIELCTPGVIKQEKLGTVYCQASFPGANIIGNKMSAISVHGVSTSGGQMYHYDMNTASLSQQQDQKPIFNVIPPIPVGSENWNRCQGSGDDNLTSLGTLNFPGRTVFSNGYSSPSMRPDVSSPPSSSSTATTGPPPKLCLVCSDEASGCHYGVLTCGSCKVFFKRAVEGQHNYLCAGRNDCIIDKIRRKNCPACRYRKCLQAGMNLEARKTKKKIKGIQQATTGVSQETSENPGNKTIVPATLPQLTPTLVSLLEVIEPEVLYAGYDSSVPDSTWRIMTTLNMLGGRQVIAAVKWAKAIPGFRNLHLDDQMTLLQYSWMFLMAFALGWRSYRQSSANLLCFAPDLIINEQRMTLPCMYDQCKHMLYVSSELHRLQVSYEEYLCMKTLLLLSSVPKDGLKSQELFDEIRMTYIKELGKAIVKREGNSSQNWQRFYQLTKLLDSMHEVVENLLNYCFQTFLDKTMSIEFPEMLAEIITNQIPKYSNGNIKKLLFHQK", "details": "in words only"}, "[1]": {"details": "in words only"}, "[2]": {"details": "in words only", "remark": "listed apart in the source"}, "[3]": {"details": "phase I and phase II clinical trials already performed"}, "[4]": {"tested_on": "mineralocorticoid, progesterone, estrogen and androgen receptors", "details": "in words only"}}, "data": [{"smiles": "CC#C[C@]1(O)CC[C@H]2[C@@H]3CCC4=CC(=O)CCC4=C3[C@@H](c3ccc4c(c3)OCO4)C[C@@]21C", "note": "[ORG 34517, (11β,17β)-11-(1,3-benzodioxol-5-yl)-17-hydroxy-17-(1-propynyl) estra-4,9-dien-3-one]", "values": [{"measurement": "glucocorticoid receptor binding affinity", "setting": "glucocorticoid receptor", "result": "high"}, {"measurement": "androgenic activities", "setting": "[1]", "result": "low"}, {"measurement": "progestagenic activities", "setting": "[2]", "result": "low"}, {"measurement": "significant toxicities and side effects identified", "setting": "[3]", "result": "none were identified"}, {"measurement": "cross-binding to other related steroidal hormone receptors (such as those for estrogen and progesterone)", "setting": "[4]", "result": "without significant cross-binding"}]}]}
